Data published in patent US9670227B2, “Thienopyrimidine derivatives, a process for their preparation and pharmaceutical compositions containing them” (LES LABORATOIRES SERVIER, priority 2013, dated 2017).
Like-named read-outs stand apart in the source and are kept apart here.

Key:
[1] = tested on: AMO-1 multiple myeloma cells; test: Quantification of the cleaved form of PARP in vivo (MSD ELISA, tumour lysates); design: species or system mice (SCID strain); settings: activation factor: cleaved PARP in treated mice / control mice, AMO-1 xenograft in SCID mice, intraveinous or oral routes
Method: The ability of the compounds of the invention to induce apoptosis, by measuring cleaved PARP levels, is evaluated in a xenograft model of AMO-1 multiple myeloma cells. 1.10^7 AMO-1 cells are grafted sub-cutaneously into immunosuppressed mice (SCID strain). 12 to 14 days after the graft, the animals are treated by intraveinous or oral routes with the various compounds. After treatment, the tumour masses are recovered and lysed, and the cleaved form of PARP is quantified in the tumour lysates.
The quantification is carried out using the “Meso Scale Discovery (MSD) ELISA platform” test, which specifically assays the cleaved form of PARP. It is expressed in the form of an activation factor corresponding to the ratio between the quantity of cleaved PARP in the treated mice divided by the quantity of cleaved PARP in the control mice.

[2] = target: Mcl-1 protein (UniProtKB primary accession number: Q07820) (Homo sapiens, UniProt Q07820); test: Inhibition of Mcl-1 by fluorescence polarisation, Method 1; type: binding; settings: for percentage fluorescence polarisation inhibition, Mcl-1 FP: partial inhibitors, @ 10 uM test compound; for IC50: read-out: IC50 (M) Mcl-1 FP
Summary of the method: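 Compounds were tested as 11-point serial dilutions at 5% final DMSO against 5 nM Mcl-1 with 1 nM fluorescein-labelled ligand in 10 mM HEPES, 150 mM NaCl, 0.05% Tween 20, pH 7.4. Relative binding potency was read by fluorescence polarisation.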

[3] = tested on: H929 multiple myeloma tumour line; test: In vitro cytotoxicity, Microculture Tetrazolium Assay; type: cell-based; settings: Homo sapiens, NCI-H929, 48 h, H929 cells, 48 hours exposure, read-out: IC50 (μM) MTT H929
Method: The cytotoxicity studies were carried out on the H929 multiple myeloma tumour line.
The cells are distributed onto microplates and exposed to the test compounds for 48 hours.

[4] = fluorescence polarisation, Method 1, or Method 2
[5] = fluorescence polarisation test, Method 1, or Method 2 where the value is underlined (underlining not visible)

Chain of Mcl-1 protein (Q07820 whole entry): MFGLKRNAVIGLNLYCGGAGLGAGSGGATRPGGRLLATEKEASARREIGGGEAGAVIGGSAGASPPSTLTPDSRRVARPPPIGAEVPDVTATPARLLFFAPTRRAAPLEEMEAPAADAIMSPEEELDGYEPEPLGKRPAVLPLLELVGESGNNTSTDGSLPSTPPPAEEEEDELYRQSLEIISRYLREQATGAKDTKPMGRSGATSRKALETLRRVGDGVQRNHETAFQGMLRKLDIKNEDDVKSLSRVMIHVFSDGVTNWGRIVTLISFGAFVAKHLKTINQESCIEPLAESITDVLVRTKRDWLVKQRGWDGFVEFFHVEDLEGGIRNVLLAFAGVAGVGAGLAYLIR

Row | Compound | PARP fold [1] | IC50 [2, 4] | IC50 ([3]; cell viability) | IC50 [2, 5] | further results
1 | CCOC(=O)[C@@H](Cc1ccccc1OCc1ccnn1C(C)C)Oc1ncnc2sc(-c3ccc(F)o3)c(-c3ccc(OCCN4CCN(C)CC4)c(Cl)c3C)c12 [Example 623, ethyl (2R)-2-{[(5Sa)-5-{3-chloro-2-methyl-4-[2-(4-methylpiperazin-1-yl)ethoxy]phenyl}-6-(5-fluorofuran-2-yl)thieno[2,3-d]pyrimidin-4-yl]oxy}-3-(2-{[1-(propan-2-yl)-1H-pyrazol-5-yl]methoxy}phenyl)propanoate] | 441.5 fold | – | – | – | percentage fluorescence polarisation inhibition, Mcl-1 FP [2]: 67.8% @ 10 uM
2 | CCOC(=O)[C@@H](Cc1ccccc1OCc1ccnc(OCC(F)(F)F)n1)Oc1ncnc2sc(-c3ccc(F)cc3)c(-c3ccc(OCCN4CCN(C)CC4)c(Cl)c3C)c12 [Example 638, ethyl (2R)-2-{[(5Sa)-5-{3-chloro-2-methyl-4-[2-(4-methylpiperazin-1-yl)ethoxy]phenyl}-6-(4-fluorophenyl)thieno[2,3-d]pyrimidin-4-yl]oxy}-3-(2-{[2-(2,2,2-trifluoroethoxy)pyrimidin-4-yl]methoxy}phenyl)propanoate] | 136.7 fold | – | – | – | percentage fluorescence polarisation inhibition, Mcl-1 FP [2]: 34.5% @ 10 uM
3 | CCOC(=O)[C@@H](Cc1ccccc1OCc1ccnc(-c2ccccc2OC)n1)Oc1ncnc2sc(-c3ccc(F)cc3)c(-c3ccc(OCCN4CCN(C)CC4)c(Cl)c3C)c12 [Example 639, ethyl (2R)-2-{[(5Sa)-5-{3-chloro-2-methyl-4-[2-(4-methylpiperazin-1-yl)ethoxy]phenyl}-6-(4-fluorophenyl)thieno[2,3-d]pyrimidin-4-yl]oxy}-3-(2-{[2-(2-methoxyphenyl)pyrimidin-4-yl]methoxy}phenyl)propanoate] | 195.7 fold | – | – | – | percentage fluorescence polarisation inhibition, Mcl-1 FP [2]: 66.25% @ 10 uM
4 | CCOC(=O)C(Cc1ccccc1OCc1ccnc(-c2ccccc2OC)n1)Oc1ncnc2sc(-c3ccc(F)cc3)c(-c3ccc(OCCN(C)C)c(Cl)c3C)c12 [Example 756, Ethyl (2R)-2-{[(5Sa)-5-{3-chloro-4-[2-(dimethylamino)ethoxy]-2-methylphenyl}-6-(4-fluorophenyl)thieno[2,3-d]pyrimidin-4-yl]oxy}-3-(2-{[2-(2-methoxyphenyl)pyrimidin-4-yl]methoxy}phenyl)propanoate] | 117 fold | 6.89e-07 M | – | – | –
5 | COc1ccccc1-c1nccc(COc2ccccc2CC(Oc2ncnc3sc(C#CCCCc4ccccc4)c(-c4ccc(OCCN5CCN(C)CC5)c(Cl)c4C)c23)C(=O)O)n1 [Example 783, (2R)-2-{[(5Sa)-5-{3-chloro-2-methyl-4-[2-(4-methylpiperazin-1-yl)ethoxy]phenyl}-6-(5-phenylpent-1-yn-1-yl)thieno[2,3-d]pyrimidin-4-yl]oxy}-3-(2-{[2-(2-methoxyphenyl)pyrimidin-4-yl]methoxy}phenyl)propanoic acid] | – | 1.06e-09 M | – | – | IC50 ([3]; MTT): 0.037 µM
6 | COCC#Cc1sc2ncnc(OC(Cc3ccccc3OCc3ccnc(-c4ccccc4OC)n3)C(=O)O)c2c1-c1ccc(OCCN2CCN(C)CC2)c(Cl)c1C [Example 784, (2R)-2-{[(5Sa)-5-{3-chloro-2-methyl-4-[2-(4-methylpiperazin-1-yl)ethoxy]phenyl}-6-(3-methoxyprop-1-yn-1-yl)thieno[2,3-d]pyrimidin-4-yl]oxy}-3-(2-{[2-(2-methoxyphenyl)pyrimidin-4-yl]methoxy}phenyl)propanoic acid] | – | 9.48e-10 M | – | – | IC50 ([3]; MTT): 0.023 µM
7 | CCOC(=O)C(Cc1ccccc1OCc1ccnc(-c2ccccc2F)n1)Oc1ncnc2sc(-c3ccc(F)cc3)c(-c3ccc(OCCN4CCN(CC)CC4)c(Cl)c3C)c12 [Example 790, ethyl (2R)-2-{[(5Sa)-5-{3-chloro-4-[2-(4-ethylpiperazin-1-yl)ethoxy]-2-methylphenyl}-6-(4-fluorophenyl)thieno[2,3-d]pyrimidin-4-yl]oxy}-3-(2-{[2-(2-fluorophenyl)pyrimidin-4-yl]methoxy}phenyl)propanoate] | 282.9 fold | 1.91e-06 M | – | – | –
8 | COc1ccccc1-c1nccc(COc2ccccc2CC(Oc2ncnc3sc(-c4ccc(F)cc4)c(-c4ccc(OCCN5CCN(C)CC5)c(Cl)c4C)c23)C(=O)Oc2ccc3c(c2)CCC3)n1 [Example 809, 2,3-dihydro-1H-inden-5-yl (2R)-2-{[(5Sa)-5-{3-chloro-2-methyl-4-[2-(4-methylpiperazin-1-yl)ethoxy]phenyl}-6-(4-fluorophenyl)thieno[2,3-d]pyrimidin-4-yl]oxy}-3-(2-{[2-(2-methoxyphenyl)pyrimidin-4-yl]methoxy}phenyl)propanoate] | – | – | 0.047 µM | 6.91e-07 M | –
9 | COc1ccccc1-c1nccc(COc2ccccc2CC(Oc2ncnc3sc(-c4ccc(F)cc4)c(-c4ccc(OCCN5CCN(C)CC5)c(Cl)c4C)c23)C(=O)OCCN(C)C)n1 [Example 813, 2-(dimethylamino)ethyl (2R)-2-{[(5Sa)-5-{3-chloro-2-methyl-4-[2-(4-methylpiperazin-1-yl)ethoxy]phenyl}-6-(4-fluorophenyl)thieno[2,3-d]pyrimidin-4-yl]oxy}-3-(2-{[2-(2-methoxyphenyl)pyrimidin-4-yl]methoxy}phenyl)propanoate] | – | – | 0.011 µM | 5.47e-09 M | –
10 | Cc1c(-c2c(-c3ccc(F)cc3)sc3ncnc(OC(Cc4ccccc4OCc4ccnc(-c5ccccc5CO)n4)C(=O)O)c23)ccc(OCCN(C)C)c1Cl [Example 832, (2R)-2-{[(5Sa)-5-{3-chloro-4-[2-(dimethylamino)ethoxy]-2-methylphenyl}-6-(4-fluorophenyl)thieno[2,3-d]pyrimidin-4-yl]oxy}-3-[2-({2-[2-(hydroxymethyl)phenyl]pyrimidin-4-yl}methoxy)phenyl]propanoic acid] | – | – | 0.004 µM | 3.15e-09 M | –
11 | COc1ccccc1-c1nccc(COc2ccccc2CC(Oc2ncnc3sc(-c4ccccc4F)c(-c4ccc(OCCN5CCN(C)CC5)c(Cl)c4C)c23)C(=O)O)n1 [Example 835, (2R)-2-{[(5Sa)-5-{3-chloro-2-methyl-4-[2-(4-methylpiperazin-1-yl)ethoxy]phenyl}-6-(2-fluorophenyl)thieno[2,3-d]pyrimidin-4-yl]oxy}-3-(2-{[2-(2-methoxyphenyl)pyrimidin-4-yl]methoxy}phenyl)propanoic acid] | – | – | 0.002 µM | 2.9e-09 M | –
12 | COc1ccccc1-c1nccc(COc2ccccc2CC(Oc2ncnc3sc(-c4cccc(F)c4)c(-c4ccc(OCCN5CCN(C)CC5)c(Cl)c4C)c23)C(=O)O)n1 [Example 836, (2R)-2-{[(5Sa)-5-{3-chloro-2-methyl-4-[2-(4-methylpiperazin-1-yl)ethoxy]phenyl}-6-(3-fluorophenyl)thieno[2,3-d]pyrimidin-4-yl]oxy}-3-(2-{[2-(2-methoxyphenyl)pyrimidin-4-yl]methoxy}phenyl)propanoic acid] | – | – | 0.002 µM | 2.8e-09 M | –
13 | COc1ccccc1-c1nccc(COc2ccccc2C[C@@H](Oc2ncnc3sc(-c4ccc(F)cc4)c(-c4ccc(OCCN5CCN(C)CC5)c(Cl)c4OC)c23)C(=O)O)n1 [Example 837, (2R)-2-{[5-{3-chloro-2-methoxy-4-[2-(4-methylpiperazin-1-yl)ethoxy]phenyl}-6-(4-fluorophenyl)thieno[2,3-d]pyrimidin-4-yl]oxy}-3-(2-{[2-(2-methoxyphenyl)pyrimidin-4-yl]methoxy}phenyl)propanoic acid] | – | – | 0.003 µM | 2.35e-09 M | –
